From paper PMC9712021 (Advances in Pharmacological and Pharmaceutical Sciences, 2022)

Legend:
Artemia salina = Artemia salina bioassay (brine shrimp lethality bioassay)
Procedure: This test was carried out with a slight modification, as described by Amaral et al.. Briefly, shrimp cysts were incubated in a small aquarium containing a brine solution (50 mg of cysts and 300 mL of brine) for 48 h with direct lighting. […] […] In the negative (NC) and positive (PC) control groups, saline solution and potassium dichromate (K2Cr2O7) were added, respectively. The concentration range used in the case of the PC group was 31.25 to 500 μg/mL.

[1] = Hemolytic activity in mice erythrocytes; type: cell-based, Mus musculus; conditions: male, Swiss albino, mouse, 37°C, 2 h
Procedure: (§1) This test was performed on adult Swiss albino mouse (Mus musculus) erythrocytes. The mouse was collected from the Central Animal House of the Federal University of Piaui, Brazil. It was allowed free access to standard food and water ad libitum and was kept under controlled lighting (12 h dark/light cycles) at 24 ± 2°C. Blood was collected from the retro-orbital plexus of the mouse (male, 24 gm body weight). Hemolytic activity in mouse erythrocytes was performed, according to Jamialahmadi et al..

mouse erythrocytes = assay: Hemolytic activity in mice erythrocytes; type: cell-based; conditions: for Hemolysis (%): 37°C, 2 h
Procedure: as §1

[2] = test system: S. cerevisiae EG103 (SODWT); assay: S. cerevisiae central disc test, oxidative damage, strain SODWT; type: cell-based, Saccharomyces cerevisiae
Source text: (§2) The central disc test was done according to the method presented by Islam et al.. Superoxide dismutase (CuZnSOD-Sod1) is a cytosolic enzyme that is faulty in strain EG118, whereas mitochondrial SOD is faulty in strain EG110 (MnSOD-Sod2). The strain EG133 has both Sod1 and Sod2 defects, while EG223 has a cytosolic catalase deficiency (Cat1). While EG103 is a competent strain that is identical to the wild-type (SODWT), EG is a dual isogenic strain for the Sod1 and Cat1 genes.

[3] = test system: S. cerevisiae EG118 (Sod1∆); assay: S. cerevisiae central disc test, oxidative damage, strain Sod1∆; type: cell-based, Saccharomyces cerevisiae
Source text: as §2

[4] = test system: S. cerevisiae EG110 (Sod2∆); assay: S. cerevisiae central disc test, oxidative damage, strain Sod2∆; type: cell-based, Saccharomyces cerevisiae
Source text: as §2

[5] = test system: S. cerevisiae EG133 (Sod1∆Sod2∆); assay: S. cerevisiae central disc test, oxidative damage, strain Sod1∆Sod2∆; type: cell-based, Saccharomyces cerevisiae
Source text: as §2

[6] = test system: S. cerevisiae EG223 (Cat1∆); assay: S. cerevisiae central disc test, oxidative damage, strain Cat1∆; type: cell-based, Saccharomyces cerevisiae
Source text: as §2

[7] = test system: S. cerevisiae EG (Sod1∆Cat1∆); assay: S. cerevisiae central disc test, oxidative damage, strain Sod1∆Cat1∆; type: cell-based, Saccharomyces cerevisiae
Source text: as §2

[8] = test system: S. cerevisiae strains (SODWT, Sod1Δ, Sod2Δ, Cat1Δ, Sod1/Sod2Δ, Cat1Δ/Sod1Δ); assay: In vivo antioxidant (S. cerevisiae) test, all strains tested; type: cell-based, Saccharomyces cerevisiae
Source text: as §2

Compound: CC(C)CCCC(C)CCO (stereo not drawn) [3,7-Dimethyl-1-octanol, 3,7-dimethyl-1-octanol]
- cytotoxic effects in the A. Salina test (Artemia salina; 31.25–500 μg/mL): did not exhibit significant cytotoxic effects
- concentration from which toxicity increased in a dose-dependent manner (Artemia salina; 48 h of exposure): 125 µg/mL
- hemolysis at 2 h, 31.25 μg/mL ([1]; mouse erythrocyte suspension, pH 7.4, 31.25 μg/mL): 3.66 ± 0.64%
- hemolysis at 2 h, 62.5 μg/mL ([1]; mouse erythrocyte suspension, pH 7.4, 62.5 μg/mL): 4.53 ± 0.06%
- hemolysis at 2 h, 250 μg/mL ([1]; mouse erythrocyte suspension, pH 7.4, 250 μg/mL): 5.64 ± 0.74%
- hemolysis at 2 h, 500 μg/mL ([1]; mouse erythrocyte suspension, pH 7.4, 500 μg/mL): 5.66 ± 0.56%
- hemolysis at 2 h, 125 μg/mL ([1]; pH 7.4, 125 μg/mL): 5.33 ± 0.75%
- cytotoxic effects in the hemolysis test (mouse erythrocytes; 31.25–500 μg/mL): did not exhibit significant cytotoxic effects
- oxidative damage ([2]; 0.9 μg/mL): 1.50 ± 0.70
- oxidative damage ([2]; 1.8 μg/mL): 1.50 ± 0.70
- oxidative damage ([2]; 7.2 μg/mL): 2.50 ± 0.70
- oxidative damage ([2]; 14.4 μg/mL): 2.00 ± 1.41
- oxidative damage ([2]; 32 μg/mL): 2.00 ± 0.00
- oxidative damage ([2]; 64 μg/mL): 1.50 ± 0.70
- oxidative damage ([2]; 128 μg/mL): 1.00 ± 1.41
- oxidative damage ([2]; 3.6 mg/mL): 2.00 ± 0.00
- oxidative damage ([2]; 256 mg/mL): 0.50 ± 0.70
- oxidative damage ([2]; 500 mg/mL): 2.50 ± 0.70
- oxidative damage ([3]; 0.9 μg/mL): 0.50 ± 0.70
- oxidative damage ([3]; 1.8 μg/mL): 0.00 ± 0.00
- oxidative damage ([3]; 7.2 μg/mL): 1.00 ± 0.00
- oxidative damage ([3]; 14.4 μg/mL): 1.00 ± 1.41
- oxidative damage ([3]; 32 μg/mL): 2.50 ± 0.70
- oxidative damage ([3]; 64 μg/mL): 3.00 ± 0.00
- oxidative damage ([3]; 128 μg/mL): 1.50 ± 0.70
- oxidative damage ([3]; 3.6 mg/mL): 1.50 ± 0.70
- oxidative damage ([3]; 256 mg/mL): 2.50 ± 0.70
- oxidative damage ([3]; 500 mg/mL): 3.00 ± 0.00
- oxidative damage ([4]; 0.9 μg/mL): 1.50 ± 0.70
- oxidative damage ([4]; 1.8 μg/mL): 2.00 ± 0.00
- oxidative damage ([4]; 7.2 μg/mL): 2.50 ± 0.70
- oxidative damage ([4]; 14.4 μg/mL): 1.50 ± 0.70
- oxidative damage ([4]; 32 μg/mL): 3.00 ± 0.00
- oxidative damage ([4]; 64 μg/mL): 1.00 ± 0.00
- oxidative damage ([4]; 128 μg/mL): 1.50 ± 0.70
- oxidative damage ([4]; 3.6 mg/mL): 2.50 ± 0.70
- oxidative damage ([4]; 256 mg/mL): 1.00 ± 1.41
- oxidative damage ([4]; 500 mg/mL): 2.50 ± 0.70
- oxidative damage ([5]; 0.9 μg/mL): 1.50 ± 0.70
- oxidative damage ([5]; 1.8 μg/mL): 1.00 ± 1.41
- oxidative damage ([5]; 7.2 μg/mL): 2.50 ± 0.70
- oxidative damage ([5]; 14.4 μg/mL): 2.00 ± 0.00
- oxidative damage ([5]; 32 μg/mL): 2.50 ± 0.70
- oxidative damage ([5]; 64 μg/mL): 3.50 ± 0.70
- oxidative damage ([5]; 128 μg/mL): 3.50 ± 0.70
- oxidative damage ([5]; 3.6 mg/mL): 2.00 ± 1.41
- oxidative damage ([5]; 256 mg/mL): 3.00 ± 1.41
- oxidative damage ([5]; 500 mg/mL): 2.50 ± 0.70
- oxidative damage ([6]; 0.9 μg/mL): 2.50 ± 0.70
- oxidative damage ([6]; 1.8 μg/mL): 3.50 ± 0.70
- oxidative damage ([6]; 7.2 μg/mL): 4.00 ± 0.00
- oxidative damage ([6]; 14.4 μg/mL): 3.50 ± 0.70
- oxidative damage ([6]; 32 μg/mL): 3.50 ± 2.12
- oxidative damage ([6]; 64 μg/mL): 3.50 ± 0.70
- oxidative damage ([6]; 128 μg/mL): 3.50 ± 2.12
- oxidative damage ([6]; 3.6 mg/mL): 2.50 ± 0.70
- oxidative damage ([6]; 256 mg/mL): 2.50 ± 2.12
- oxidative damage ([6]; 500 mg/mL): 3.00 ± 1.41
- oxidative damage ([7]; 0.9 μg/mL): 2.50 ± 0.70
- oxidative damage ([7]; 1.8 μg/mL): 3.00 ± 0.00
- oxidative damage ([7]; 7.2 μg/mL): 3.00 ± 1.41
- oxidative damage ([7]; 14.4 μg/mL): 2.00 ± 2.82
- oxidative damage ([7]; 32 μg/mL): 3.50 ± 0.70
- oxidative damage ([7]; 64 μg/mL): 3.00 ± 1.41
- oxidative damage ([7]; 128 μg/mL): 4.00 ± 1.41
- oxidative damage ([7]; 256 μg/mL): 3.00 ± 0.00
- oxidative damage ([7]; 3.6 mg/mL): 4.00 ± 1.41
- oxidative damage ([7]; 500 mg/mL): 3.50 ± 0.70
- percentage modulation of oxidative damage caused by the stressor H2O2 ([8]; all strains and concentrations tested): more than 60%
- induction of oxidative damage ([8]; any concentration, any of the tested S. cerevisiae strains): did not induce oxidative damage

Compound: OO [H2O2, hydrogen peroxide, reference compound]
- oxidative damage ([2]; 10 mM, positive control): 30.75 ± 5.0^∗∗
- oxidative damage ([3]; 10 mM, positive control): 25.5 ± 4.2^∗∗
- oxidative damage ([4]; 10 mM, positive control): 25.25 ± 6.18^∗∗
- oxidative damage ([5]; 10 mM, positive control): 27.00 ± 5.09^∗∗
- oxidative damage ([6]; 10 mM, positive control): 24.25 ± 4.03^∗∗
- oxidative damage ([7]; 10 mM, positive control): 22.25 ± 4.57^∗∗

Compound: Triton X-100 [reference compound]
- Hemolysis (%) (mouse erythrocytes; 31.25 μg/mL): 100 ± 0.00^∗ %
- Hemolysis (%) (mouse erythrocytes; 62.5 μg/mL): 100 ± 0.00^∗ %
- Hemolysis (%) (mouse erythrocytes; 125 μg/mL): 100 ± 0.00^∗ %
- Hemolysis (%) (mouse erythrocytes; 250 μg/mL): 100 ± 0.00^∗ %
- Hemolysis (%) (mouse erythrocytes; 500 μg/mL): 100 ± 0.00^∗ %
